Publication PMC12371491 (ACS Bio & Med Chem Au, 2025)

Biological target: T1, dihydrofolate synthetase (DHFS) (Escherichia coli, UniProt P08192)
T1 sequence (P08192 1-422): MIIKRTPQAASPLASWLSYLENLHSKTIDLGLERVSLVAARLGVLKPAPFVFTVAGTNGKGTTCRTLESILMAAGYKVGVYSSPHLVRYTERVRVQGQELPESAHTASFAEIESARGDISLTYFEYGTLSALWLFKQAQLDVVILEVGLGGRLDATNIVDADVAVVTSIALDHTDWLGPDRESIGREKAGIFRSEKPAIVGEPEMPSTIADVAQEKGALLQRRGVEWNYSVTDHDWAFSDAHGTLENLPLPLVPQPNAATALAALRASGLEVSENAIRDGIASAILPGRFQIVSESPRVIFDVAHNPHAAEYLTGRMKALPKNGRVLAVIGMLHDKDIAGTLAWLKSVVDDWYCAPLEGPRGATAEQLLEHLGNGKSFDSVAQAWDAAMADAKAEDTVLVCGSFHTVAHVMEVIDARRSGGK
Assay: PK/LDH-coupled steady-state kinetics and LC-MS of product
Type: biochemical

Structure (SMILES): Nc1nc2c(c(=O)[nH]1)NC(CNc1ccc(C(=O)N[C@@H](CCC(=O)O)C(=O)O)cc1)CN2 (stereo partly shown) [THF]
- PK/LDH-coupled steady-state kinetics and LC-MS of product: we used fully reduced THF as the substrate and assay for poly glutamylation
